Measured values as given in US20020055528A1, “Artemisinin analogs having antimalarial, antiproliferative, and antitumor activities and chemoselective methods of making the same” (priority 1999, published 2002).
Read-outs that look alike come from different tables or passages of the source.

Key:
[1] = test system: MDA-MB-435; experiment: NCI 60 cell line screen (SRB), Breast Cancer; type: cell-based
[2] = test system: NCI-H23; experiment: NCI 60 cell line screen (SRB), Non-Small Cell Lung Cancer; type: cell-based; conditions: PG=0
[3] = test system: MCF7; experiment: NCI 60 cell line screen (SRB), Breast Cancer; type: cell-based
[4] = test system: A498; experiment: NCI 60 cell line screen (SRB), Renal Cancer; type: cell-based
[5] = test system: KM12; experiment: NCI 60 cell line screen (SRB), Colon Cancer; type: cell-based; conditions: for Log10TGI: PG=0
[6] = test system: RPMI-8226; experiment: NCI 60 cell line screen (SRB), Leukemia; type: cell-based; conditions: for Log10TGI: PG=0
[7] = test system: 786-0; experiment: NCI 60 cell line screen (SRB), Renal Cancer; type: cell-based; conditions: for Log10TGI: PG=0
[8] = test system: SNB-19; experiment: NCI 60 cell line screen (SRB), CNS Cancer; type: cell-based; conditions: PG=0
[9] = test system: MDA-N; experiment: NCI 60 cell line screen (SRB), Breast Cancer; type: cell-based; conditions: for Log10TGI: PG=0
[10] = test system: U251; experiment: NCI 60 cell line screen (SRB), CNS Cancer; type: cell-based; conditions: for Log10TGI: PG=0
[11] = test system: MOLT-4; conditions: for Log10TGI: PG=0; for drug concentration for cytotoxicity (percentage growth −50): human, 48 h
Procedure: The screening assay is performed on 96-well microtitre plates. Relatively high initial inoculation densities are used, in order to permit measurement of “time-zero” values and to enhance the screen's ability to detect and provide some differentiation between antiproliferative and cytotoxic response parameters. […] The inoculated microtitre plates are pre-incubated for 24 hours at 37θC prior to drug additions. The five drug dilutions tested routinely range from 10^−4 to 10^−8 molar. Higher or lower concentration ranges may be selected on a nonroutine basis if appropriate solubility and/or prior biological information or other screening data so dictate. Duplicate wells are prepared for all concentrations, (concentration is often denoted by placing brackets around a number); “time-zero” and “no drug” controls are also provided for each test. The minimum amount of compound required for a one-time evaluation in the routine screen can be calculated from the knowledge that each test requires a total of approximately 40 ml (0.04 liter) of cell culture medium containing the highest desired drug concentration. Thus, the amount (grams) of sample required (assuming an upper test concentration limit of 10^−4 M) is: molecular weight of compound×[…]. After a 48 hour incubation (37θC) with the test compound, the cells are fixed in situ to the bottoms of the microtitre wells by addition of 50 ul of either 50% trichloroacetic acid (for adherent cell lines) or 80% trichloroacetic acid (for settled cell suspension lines), followed by incubation for 60 minutes at 4θC. The cellular protein in each well is assayed using a sulforhodamine B (SRB) stain procedure. Briefly, after discarding the supernatants, the microtitre plates are washed 5 times with deionized water and air-dried. One hundred microliters of SRB solution (0.4% w/v in 1% acetic acid) is added to each microtitre well and incubated for 10 minutes at room temperature. Unbound SRB is removed by washing 5 times with 1 % acetic acid. The plates are air-dried, the bound stain is solubilized with Tris buffer, and the optical densities read at 515 nm. SRB is a bright pink anionic dye which, in dilute acetic acid, binds electrostatically to the basic amino acids of TCA-fixed cells. Cryopreserved master stocks of all the lines are maintained, and cultures used for screening are replaced from the master stock after no more than twenty passages in the screening laboratory. The cell line panel consists of 60 lines, organized into nine, disease-related subpanels including leukemia, non-small-cell lung cancer, colon, CNS, melanoma, ovarian, renal, prostate and breast cancers.
The response parameters G150 and LC50 are interpolated values representing the concentrations at which the percentage growth (PG) is +50 and −50, respectively:
GI50 is the concentration for which the PG=+50. At this value the increase from time tzero, in the number or mass of cells in the test well is only 50% as much as the corresponding increase in the control well during this period of the experiment, see Table II. A drug effect of this intensity is interpreted as primary growth inhibition.
TGI is the concentration for which PG=0. At this value the number or mass of cells in the well at the end of the experiment equals the number or mass of cells in the well at time tzero, see Table III. A drug effect of this intensity is regarded as cytostasis.
LC50 is the concentration for which the PG=−50. At this value, the number or mass of cells in the test well at the end of the experiment is half that at time tzero, see Table IV. This is interpreted as cytotoxicity.

[12] = test system: BT-549; experiment: NCI 60 cell line screen (SRB), Breast Cancer; type: cell-based
[13] = test system: HCT-15; experiment: NCI 60 cell line screen (SRB), Colon Cancer; type: cell-based; conditions: PG=0
[14] = test system: RXF 393; experiment: NCI 60 cell line screen (SRB), Renal Cancer; type: cell-based; conditions: for Log10TGI: PG=0
[15] = test system: MB231/ATCC (second line of the wrapped label, with values of its own); experiment: NCI 60 cell line screen (SRB), Breast Cancer; type: cell-based
[16] = test system: OVCAR-4; experiment: NCI 60 cell line screen (SRB), Ovarian Cancer; type: cell-based
[17] = test system: NCI/ADR-RES; experiment: NCI 60 cell line screen (SRB), Breast Cancer; type: cell-based
[18] = test system: CAKI-1; experiment: NCI 60 cell line screen (SRB), Renal Cancer; type: cell-based; conditions: Table IV (LC50, PG=−50)
[19] = test system: OVCAR-3; experiment: NCI 60 cell line screen (SRB), Ovarian Cancer; type: cell-based; conditions: PG=0
[20] = test system: DU-145; experiment: NCI 60 cell line screen (SRB), Prostate Cancer; type: cell-based
[21] = Table IV (LC50, PG=−50), MOLT−4

## C[C@@H]1CC[C@H]2[C@@H](C)C(=O)O[C@@H]3O[C@]4(C)CC[C@@H]1[C@]32OO4 [Artemisinin, artemisinin]
[1]; MDA-MB-435, PG=0
  Log10TGI: >−4.00 log10M
[1]; MDA-MB−435, PG=+50
  Log10GI50: >−4.00 log10M
[1]; Table IV (LC50, PG=−50), MDA-MB-435
  Log10GI50: >−4.00 log10M
[2]
  Log10TGI: >−4.00 log10M
[3]; PG=0
  Log10TGI: >−4.00 log10M
[3]; PG=+50
  Log10GI50: >−4.00 log10M
[3]; Table IV (LC50, PG=−50)
  Log10GI50: >−4.00 log10M
[4]; PG=0
  Log10TGI: >−4.00 log10M
[4]; PG=+50
  Log10GI50: >−4.00 log10M
[4]; Table IV (LC50, PG=−50)
  Log10GI50: >−4.00 log10M
[5]
  Log10TGI: >−4.00 log10M
[5]; PG=+50
  Log10GI50: >−4.00 log10M
[5]; Table IV (LC50, PG=−50)
  Log10GI50: >−4.00 log10M
[6]
  Log10TGI: >−4.00 log10M
[6]; PG=+50
  Log10GI50: >−4.00 log10M
[6]; Table IV (LC50, PG=−50)
  Log10GI50: >−4.00 log10M
[7]
  Log10TGI: >−4.00 log10M
[7]; PG=+50
  Log10GI50: >−4.00 log10M
[7]; Table IV (LC50, PG=−50)
  Log10GI50: >−4.00 log10M
[8]
  Log10TGI: >−4.00 log10M
[9]
  Log10TGI: −4.00 log10M
[9]; PG=+50
  Log10GI50: −4.06 log10M
[9]; Table IV (LC50, PG=−50)
  Log10GI50: >−4.00 log10M
[10]
  Log10TGI: >−4.00 log10M
[10]; PG=+50
  Log10GI50: >−4.00 log10M
[10]; Table IV (LC50, PG=−50)
  Log10GI50: >−4.00 log10M
[11]; MOLT-4, PG=+50
  Log10GI50: −4.73 log10M
[11]; MOLT−4
  Log10TGI: −4.00 log10M
[11]; [21]
  Log10GI50: >−4.00 log10M
[11]
  drug concentration for cytotoxicity (percentage growth −50): greater than 10^−4 M
[12]; PG=0
  Log10TGI: >−4.00 log10M
[12]; Table IV (LC50, PG=−50)
  Log10GI50: >−4.00 log10M
[13]
  Log10TGI: >−4.00 log10M
[14]
  Log10TGI: >−4.00 log10M
[14]; PG=+50
  Log10GI50: −4.08 log10M
[14]; Table IV (LC50, PG=−50)
  Log10GI50: >−4.00 log10M
[15]; PG=0
  Log10TGI: >−4.00 log10M
[15]; PG=+50
  Log10GI50: >−4.00 log10M
[15]; Table IV (LC50, PG=−50)
  Log10GI50: >−4.00 log10M

## CC(=O)O[C@H]1C(=O)[C@@]2(C)[C@H]([C@H](OC(=O)c3ccccc3)[C@]3(O)C[C@H](OC(=O)[C@H](O)[C@@H](NC(=O)c4ccccc4)c4ccccc4)C(C)=C1C3(C)C)[C@]1(OC(C)=O)CO[C@@H]1C[C@@H]2O [Paclitaxel, paclitaxel, reference compound]
[1]; MDA-MB−435, PG=+50
  Log10GI50: <-13.00 log10M
[3]; PG=+50
  Log10GI50: −11.69 log10M
[3]; Table IV (LC50, PG=−50)
  Log10GI50: >−4.00 log10M
[4]; PG=+50
  Log10GI50: −7.14 log10M
[4]; Table IV (LC50, PG=−50)
  Log10GI50: −4.13 log10M
[5]
  Log10TGI: −4.36 log10M
[5]; PG=+50
  Log10GI50: −11.43 log10M
[5]; Table IV (LC50, PG=−50)
  Log10GI50: >−4.00 log10M
[16]; OVCAR-4, PG=+50
  Log10GI50: −5.00 log10M
[16]; OVCAR−4, PG=0
  Log10TGI: −4.19 log10M
[16]; Table IV (LC50, PG=−50), OVCAR−4
  Log10GI50: >−4.00 log10M
[17]; PG=0
  Log10TGI: >−4.00 log10M
[17]; PG=+50
  Log10GI50: −8.48 log10M
[17]; Table IV (LC50, PG=−50)
  Log10GI50: >−4.00 log10M
[6]
  Log10TGI: <-13.00 log10M
[6]; PG=+50
  Log10GI50: <−13.00 log10M
[6]; Table IV (LC50, PG=−50)
  Log10GI50: >−4.00 log10M
[7]
  Log10TGI: >−4.00 log10M
[7]; PG=+50
  Log10GI50: −8.01 log10M
[7]; Table IV (LC50, PG=−50)
  Log10GI50: >−4.00 log10M
[8]
  Log10TGI: >−4.00 log10M
[9]
  Log10TGI: −6.32 log10M
[9]; PG=+50
  Log10GI50: −9.31 log10M
[9]; Table IV (LC50, PG=−50)
  Log10GI50: >−4.00 log10M
[10]
  Log10TGI: −4.32 log10M
[10]; PG=+50
  Log10GI50: −11.29 log10M
[10]; Table IV (LC50, PG=−50)
  Log10GI50: −4.15 log10M
[11]; MOLT-4, PG=+50
  Log10GI50: −11.07 log10M
[11]; MOLT−4
  Log10TGI: −11.07 log10M
[11]; [21]
  Log10GI50: >−4.00 log10M
[11]
  drug concentration for cytotoxicity (percentage growth −50): greater than 10^−4 M
[12]; PG=+50
  Log10GI50: −9.81 log10M
[13]
  Log10TGI: >−4.00 log10M
[14]
  Log10TGI: >−4.00 log10M
[14]; PG=+50
  Log10GI50: −8.32 log10M
[14]; Table IV (LC50, PG=−50)
  Log10GI50: >−4.00 log10M
[18]
  Log10GI50: >−4.00 log10M
[19]
  Log10TGI: −4.55 log10M
[20]; PG=0
  Log10TGI: >−4.00 log10M
[20]; PG=+50
  Log10GI50: −9.38 log10M
[20]; Table IV (LC50, PG=−50)
  Log10GI50: >−4.00 log10M
